Holding throughout (experiment): ATP hydrolysis, [γ-32P]-ATP TLC, Michaelis-Menten fit
Common to all, as to format: biochemical
Common to all, as to details: M13 ssDNA 1.5 μM nt, 10 nM Pif1, 5 mM MgCl2, 60 mM KCl, pH 7.5, 30 °C, no RPA; labelled compound as tracer

For test [1], the target named is T1, GFP-Pif1 (Saccharomyces cerevisiae, UniProt P07271, H303A).
T1 construct: N-terminal superfolder GFP fusion of nuclear isoform residues 40-859, pRSF-Duet-1, E. coli Rosetta2(DE3), Ni-NTA purified
T1 sequence (P07271 40-859 H303A): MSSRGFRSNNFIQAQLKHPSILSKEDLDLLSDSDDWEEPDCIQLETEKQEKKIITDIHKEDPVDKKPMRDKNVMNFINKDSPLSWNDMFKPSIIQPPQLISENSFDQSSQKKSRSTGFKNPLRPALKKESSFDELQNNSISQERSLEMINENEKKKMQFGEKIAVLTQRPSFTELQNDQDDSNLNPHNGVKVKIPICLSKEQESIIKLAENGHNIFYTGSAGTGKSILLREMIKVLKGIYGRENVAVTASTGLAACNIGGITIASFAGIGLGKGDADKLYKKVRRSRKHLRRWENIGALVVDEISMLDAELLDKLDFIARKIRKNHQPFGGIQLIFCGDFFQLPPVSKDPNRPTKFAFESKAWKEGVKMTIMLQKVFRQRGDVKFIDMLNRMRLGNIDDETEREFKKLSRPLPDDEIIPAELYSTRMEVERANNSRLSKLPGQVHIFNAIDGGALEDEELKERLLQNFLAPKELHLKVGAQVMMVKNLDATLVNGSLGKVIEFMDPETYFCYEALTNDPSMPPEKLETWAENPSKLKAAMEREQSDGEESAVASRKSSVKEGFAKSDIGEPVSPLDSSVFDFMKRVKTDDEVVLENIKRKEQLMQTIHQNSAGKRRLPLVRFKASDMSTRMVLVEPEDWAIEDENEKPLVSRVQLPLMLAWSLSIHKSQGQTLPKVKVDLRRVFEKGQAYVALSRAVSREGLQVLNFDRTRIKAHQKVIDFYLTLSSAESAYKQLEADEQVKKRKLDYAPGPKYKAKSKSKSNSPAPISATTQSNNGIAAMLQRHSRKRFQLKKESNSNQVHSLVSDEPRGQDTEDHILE
As for the experimental part:
(§1) ATP hydrolysis, [γ-32P]-ATP TLC, Michaelis-Menten fit on GFP-Pif1 | each of the mutant proteins was tested for ATPase activity

In test [2] the target is T2, GFP-Pif1 (Saccharomyces cerevisiae, UniProt P07271, L310A).
T2 construct: N-terminal superfolder GFP fusion of nuclear isoform residues 40-859, pRSF-Duet-1, E. coli Rosetta2(DE3), Ni-NTA purified
T2 sequence (P07271 40-859 L310A): T1 sequence (P07271 40-859 H303A) with A264H, L271A
As for the experimental part: as §1

In test [3] the target is T3, GFP-Pif1 (Saccharomyces cerevisiae, UniProt P07271, K312A).
T3 construct: N-terminal superfolder GFP fusion of nuclear isoform residues 40-859, pRSF-Duet-1, E. coli Rosetta2(DE3), Ni-NTA purified
T3 sequence (P07271 40-859 K312A): T1 sequence (P07271 40-859 H303A) with A264H, K273A
How it is done:
as §1

Molecules are shown by their SMILES. Changes are numbered by the printed parent chain.

From publication PMC10279920, “Single-molecule visualization of Pif1 helicase translocation on single-stranded DNA” (The Journal of Biological Chemistry, 2023) come the findings set out here.

For orientation: Km means the substrate concentration at which the rate is half of its maximum. With `Nc1ncnc2c1ncn2[C@@H]1O[C@H](COP(=O)(O)OP(=O)(O)OP(=O)(O)O)[C@@H](O)[C@H]1O` [ATP], the Michaelis-Menten constant (Km) stood at 870 ± 1320 µM on GFP-Pif1 [1], 650 ± 630 µM at GFP-Pif1 [2] and 380 ± 310 µM on GFP-Pif1 [3].
